Results from EPA's aquatic toxicity sets.

test system: Tetrahymena pyriformis; assay: 48 h IGC50 (-log10 mol/L); higher = more toxic

In order of falling “48 h IGC50 (-log10 mol/L)” value:
1. O=C1C=Cc2ccccc2C1=O  6.2
2. O=C(CBr)c1ccc2ccccc2c1  5.96
3. CCCCCCCCCOC(=O)c1ccc(O)cc1  5.63
4. Cc1c(O)c(Br)c(Br)c(Br)c1Br  5.57
5. S=C=NCCCc1ccccc1  5.54
6. Cc1cc(Cl)c([N+](=O)[O-])cc1[N+](=O)[O-]  5.33
7. O=[N+]([O-])c1ccc(CBr)cc1  5.31
8. CCCCCCCC(O)CCCCC (stereo not drawn)  5.24
9. O=C(CBr)c1cccs1  5.22
10. CCOC(=O)C(Br)CBr (stereo not drawn)  5.21
11. CCCCCCCCCC=CCO  5.09
12. O=C(CBr)Oc1ccccc1  5.08
13. O=[N+]([O-])c1cc([N+](=O)[O-])c(F)cc1F  5.08
14. O=[N+]([O-])/C=C/c1ccco1  5.04
15. C=CC(=O)CCCCC  4.92
16. CCCCCCCCCCCC#N  4.9
17. CCCCCCCCCCOC(C)=O  4.88
18. Oc1c(F)c(F)c(O)c(F)c1F  4.84
19. CCCCCCc1ccc(O)cc1O  4.8
20. C#CC(=O)OC  4.77
21. O=[N+]([O-])c1cccnc1SCc1ccccc1  4.72
22. CCCCCCCCCN  4.7
23. Oc1ccc(O)c(Br)c1  4.68
24. Sc1ccccc1  4.66
25. O=[N+]([O-])CBr  4.64
26. Nc1c(Br)cc(Br)cc1[N+](=O)[O-]  4.62
27. CC(C)CCOC(=O)c1ccc(O)cc1  4.48
28. CC(C)(C)c1cc(N)cc(C(C)(C)C)c1  4.44
29. CCCCOc1ccc([N+](=O)[O-])cc1  4.42
30. O=[N+]([O-])c1cc(F)ccc1O  4.38
31. CCC=CCCC=CC=O  4.34
32. CCCCCCCCCCO  4.33
33. CCOC(=O)c1ccc(Br)cc1  4.33
34. C=Cc1ccc2ccccc2c1  4.24
35. Cc1ccc2ccccc2c1C=O  4.23
36. O=Cc1ccc(Cl)c([N+](=O)[O-])c1  4.19
37. Cc1cc(C)c(O)c(C(C)(C)C)c1  4.16
38. Nc1c(Cl)cc([N+](=O)[O-])cc1[N+](=O)[O-]  4.12
39. CC(C)CC(=O)OCCc1ccccc1  4.1
40. CCc1cc(O)ccc1Cl  4.08
41. CCOC(=O)C(C)Br (stereo not drawn)  4.06
42. CCCCCC#CC(=O)OC  4.04
43. CCCCCCCCC(C)O (stereo not drawn)  3.99
44. Oc1cc(O)c(Cl)cc1Cl  3.97
45. CC/C=C\CCCCCC=O  3.95
46. OCc1ccc(-c2ccccc2)cc1  3.92
47. COC(=O)c1ccc(C(C)(C)C)cc1  3.92
48. CC(C)(C)c1ccc(O)cc1  3.91
49. Cc1cc(C)c(O)c(N)c1  3.89
50. COC(=O)CCl  3.89
51. O=C(c1ccccc1)c1ccc(O)c(O)c1O  3.88
52. O=C(CBr)Nc1cc([N+](=O)[O-])ccc1O  3.87
53. O=Cc1cccc([N+](=O)[O-])c1O  3.87
54. CC/C=C/C=C/C=O  3.86
55. CCCCNC(=S)NCCCC  3.86
56. Oc1c(Cl)cc(F)cc1Cl  3.8
57. O=[N+]([O-])c1ccccc1Br  3.75
58. CC(O)C(c1ccccc1)c1ccccc1 (stereo not drawn)  3.75
59. CCCCOc1ccc(O)cc1  3.7
60. CCCC(Br)C(=O)OCC (stereo not drawn)  3.7
61. CCOC(=O)c1ccc(C)cc1  3.68
62. Cc1ccc([N+](=O)[O-])cc1O  3.66
63. CC(=O)C(Cl)Cl  3.64
64. O=Cc1ccc(Cl)s1  3.62
65. Cc1cc2ccccc2o1  3.62
66. Oc1ccc(C(F)(F)F)cc1  3.62
67. CC(=O)OC/C=C/c1ccccc1  3.59
68. C=CC(=O)OCCCCC  3.54
69. C#CCSc1ccccc1  3.54
70. CCCCCCCCCC(=O)O  3.51
71. C=CCOC(=O)CCCCCCCCC  3.48
72. COC(=O)c1ccc(C(=O)OC)c([N+](=O)[O-])c1  3.43
73. Cc1cc(C)c(O)c(C)c1  3.42
74. C=CSc1ccccc1  3.42
75. O=[N+]([O-])c1ccncc1  3.41
76. O=Cc1cccc(Cl)c1  3.41
77. Cc1ccc(N)cc1Cl  3.39
78. O=[N+]([O-])c1cccc2ncccc12  3.39
79. COc1cccc(C=O)c1O  3.38
80. CCCCC/C=C/CO  3.37
81. CC(C)(C)c1ccc(O)c(N)c1  3.37
82. O=Cc1ccc(I)o1  3.33
83. CNc1ccc(C(=O)OC)cc1  3.31
84. Cc1cccc(C)c1[N+](=O)[O-]  3.3
85. CCSc1ccccc1  3.3
86. COC(=O)CCCCCCC(=O)OC  3.3
87. COC(=O)c1ccc(C=O)cc1  3.3
88. O=Cc1ccc([N+](=O)[O-])c(O)c1  3.27
89. CCOC(=O)Cc1cccs1  3.27
90. CC(C)(C)c1ccncc1  3.2
91. NNC(=O)c1ccccc1O  3.18
92. CCCC(O)Cc1ccccc1 (stereo not drawn)  3.16
93. NCCc1ccc(Cl)cc1  3.14
94. Cc1ccc(C)c(O)c1  3.14
95. CCC(=O)c1ccc(O)cc1  3.12
96. CCCCCCC(=O)OC  3.1
97. C=COC(=O)CCCCC  3.08
98. CCNc1ccccc1  3.07
99. N#Cc1ccccc1O  3.04
100. CCCCC(=O)OCCC  3.01
101. CC(Br)C(N)=O (stereo not drawn)  3
102. CCCCCCOC(C)=O  2.99
103. CC(=S)Nc1ccccc1  2.99
104. COc1cc(C=O)ccc1O  2.97
105. CCC#CC(O)CC (stereo not drawn)  2.97
106. N#Cc1cccc(O)c1  2.94
107. O=C1CCO1  2.88
108. O=Cc1ccc(F)cc1  2.87
109. C#Cc1ccccc1  2.86
110. Cc1ccc(N)cc1C  2.84
111. CCC(O)(CC)C(C)(C)C  2.83
112. O=Cc1cc(O)c(O)c(O)c1  2.8
113. N#C/C=C/c1ccco1  2.69
114. Cc1ccc(C)c(N)c1  2.67
115. CCC(Cl)C(=O)O (stereo not drawn)  2.65
116. CCCCC(=O)OCC  2.64
117. CCC#CCC(O)CC (stereo not drawn)  2.62
118. CCCCCCO  2.62
119. CC(C)(O)Cc1ccccc1  2.59
120. CCC(O)c1ccccc1 (stereo not drawn)  2.57
121. N#Cc1c(O)ccc(O)c1C#N  2.56
122. O=Cc1ccc[nH]1  2.52
123. Brc1ccoc1  2.52
124. Cc1ccncc1C  2.5
125. CCOC(=O)C(C)C(=O)OCC  2.49
126. O=C(O)CCCCCCC(=O)O  2.49
127. CCc1ccco1  2.48
128. CC(C)C(Br)C(=O)O (stereo not drawn)  2.45
129. CCCCC(N)CO (stereo not drawn)  2.42
130. CC(=O)c1cccs1  2.41
131. C=COC(=O)C(=C)C  2.38
132. CCCC(N)CO (stereo not drawn)  2.33
133. CCCCNC  2.32
134. OC1Cc2ccccc2C1  2.31
135. CCCNC(N)=S  2.31
136. NC(=O)c1ccccc1[N+](=O)[O-]  2.28
137. N#Cc1cccs1  2.24
138. CC(=O)c1ccc(C)[nH]1  2.17
139. CC(C)(C)CO  2.13
140. C=C(C)CCC(C)=O  2.12
141. CCN(C)C  2.09
142. CCOC(=O)c1ccccn1  2.08
143. CCC(C)CO (stereo not drawn)  2.05
144. NCCCCO  2.02
145. OCC(Cl)Cl  2.01
146. CC/C=C\CO  1.9
147. C=C(C)CCO  1.82
148. CC1CCOC1=O (stereo not drawn)  1.81
149. CCC(Cl)C(N)=O (stereo not drawn)  1.78
150. CCOC(=O)CC#N  1.77
151. CC(C)(C)C#N  1.68
152. CC(C)(C)OC=O  1.63
153. NNC(=O)CCCCC(=O)NN  1.63
154. CC(=O)NN  1.62
155. CC(=O)CCC(C)=O  1.6
156. CCOC(=O)CCC(C)=O  1.6
157. C=CCC(C)O (stereo not drawn)  1.48
158. N#CCCCCC#N  1.46
159. CCC(=O)N(C)C  1.43
160. CC(C)C#N  1.38
161. C=CCCO  1.3
162. CCNC(C)=O  1.3
163. NCCCCCO  1.24
164. COP(=O)(OC)OC  1.18
165. CC(C)(N)CO  1.07
166. CC(=O)N(C)C  1.05
167. CCC(O)CO (stereo not drawn)  0.952
168. CS(C)=O  0.548
